From patent US10131652B2, “Pyrimidinyloxy benzene derivatives as herbicides” (E. I. DU PONT DE NEMOURS AND COMPANY, priority 2014, dated 2018)

Legend:
Format in all cases: in vivo
[1] = tested on: Italian ryegrass (Lolium multiflorum); test: Test B pre-/postemergence plant response
Procedure, shortened: (§1)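 Seeds in loam–sand blend given preemergence soil spray; separately, plants at one- to two-leaf stage (2–10 cm) sprayed postemergence, compounds in non-phytotoxic solvent with surfactant. Injury rated visually versus untreated controls after ~10 days in greenhouse, 0 (no effect) to 100 (complete control).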

[2] = tested on: barnyardgrass (Echinochloa crus-galli); test: Test B pre-/postemergence plant response
Procedure, shortened: as §1

corn (Zea mays) = test: Test B pre-/postemergence plant response
Procedure, shortened: as §1

[3] = tested on: giant foxtail (Setaria faberii); test: Test B pre-/postemergence plant response
Procedure, shortened: as §1

kochia (Kochia scoparia) = test: Test B pre-/postemergence plant response
Procedure, shortened: as §1

[4] = tested on: pigweed (Amaranthus retroflexus); test: Test B pre-/postemergence plant response
Procedure, shortened: as §1

[5] = tested on: ragweed (common ragweed, Ambrosia elatior); test: Test B pre-/postemergence plant response
Procedure, shortened: as §1

[6] = tested on: wheat (Triticum aestivum); test: Test B pre-/postemergence plant response
Procedure, shortened: as §1

[7] = tested on: blackgrass (Alopecurus myosuroides); test: Test B postemergence plant response
Procedure, shortened: (§2)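 Weeds grown in loam soil/sand pots were sprayed postemergence at 2 to 10 cm height, one- to two-leaf stage. After approximately 10 days in greenhouse, injury was rated visually against untreated controls on a 0 (no effect) to 100 (complete control) scale; dash means no test result.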

[8] = tested on: galium (catchweed bedstraw, Galium aparine); test: Test B postemergence plant response
Procedure, shortened: as §2

[9] = tested on: barnyardgrass (Echinochloa crus-galli); test: Test C flooded paddy test plant response; conditions: Flood, 250 g ai/ha; scale of 0 to 100 where 0 is no effect and 100 is complete control; 13 to 15 days
Procedure, shortened: (§3)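 Scale 0 (no effect) to 100 (complete control), assigned visually versus controls after 13–15 d greenhouse. Application: directly to paddy water, 3 cm flood depth kept constant, 2-leaf stage.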

[10] = tested on: ducksalad (Heteranthera limosa); test: Test C flooded paddy test plant response; conditions: Flood, 250 g ai/ha; scale of 0 to 100 where 0 is no effect and 100 is complete control; 13 to 15 days
Procedure, shortened: as §3

rice (Oryza sativa) = test: Test C flooded paddy test plant response; conditions: Flood, 250 g ai/ha; scale of 0 to 100 where 0 is no effect and 100 is complete control; 13 to 15 days
Procedure, shortened: as §3

[11] = tested on: small-flower umbrella sedge (Cyperus difformis); test: Test C flooded paddy test plant response; conditions: Flood, 250 g ai/ha; scale of 0 to 100 where 0 is no effect and 100 is complete control; 13 to 15 days
Procedure, shortened: as §3

[12] = 125 g ai/ha, postemergence, 0 to 100 scale, 0 no effect, 100 complete control
[13] = Postemergence, 500 g ai/ha, 0 to 100 scale (0 no effect, 100 complete control)
[14] = Preemergence, 125 g ai/ha, 0 to 100 scale (0 no effect, 100 complete control)
[15] = Preemergence, 500 g ai/ha, 0 to 100 scale where 0 is no effect and 100 is complete control
[16] = 31 g ai/ha, Postemergence, 0 to 100 scale, 0 no effect, 100 complete control
[17] = 31 g ai/ha, Preemergence, 0 to 100 scale where 0 is no effect and 100 is complete control
[18] = Preemergence, 125 g ai/ha, 0 to 100 scale where 0 is no effect and 100 is complete control
[19] = Postemergence, 31 g ai/ha, 0 to 100 scale (0 no effect, 100 complete control)

FC(F)c1cc(-c2ccccc2Oc2ncc(Cl)cn2)ncn1 [Compound 184]
Plant response rating, Ryegrass, Italian [1, 12]: 0 | Plant response rating, Ryegrass, Italian [1, 13]: 20 | Ryegrass, Italian plant response rating [1, 14]: 0 | Plant response rating, Ryegrass, Italian [1, 15]: 10 | Plant response rating, Barnyardgrass [2, 12]: 0 | Plant response rating, Barnyardgrass [2, 13]: 50 | Barnyardgrass plant response rating [2, 14]: 10 | Plant response rating, Barnyardgrass [2, 15]: 90 | Plant response rating, Corn (corn (Zea mays); [12]): 10 | Plant response rating, Corn (corn (Zea mays); [13]): 20 | Plant response rating, Foxtail, Giant [3, 12]: 10 | Plant response rating, Foxtail, Giant [3, 13]: 70 | Foxtail, Giant plant response rating [3, 14]: 20 | Plant response rating, Foxtail, Giant [3, 15]: 90 | Plant response rating, Kochia (kochia (Kochia scoparia); [12]): 70 | Plant response rating, Kochia (kochia (Kochia scoparia); [13]): 100 | Kochia plant response rating (kochia (Kochia scoparia); [14]): 20 | Plant response rating, Kochia (kochia (Kochia scoparia); [15]): 100 | Plant response rating, Pigweed [4, 12]: 90 | Plant response rating, Pigweed [4, 13]: 100 | Pigweed plant response rating [4, 14]: 80 | Plant response rating, Pigweed [4, 15]: 100 | Plant response rating, Ragweed [5, 12]: 20 | Plant response rating, Ragweed [5, 13]: 40 | Ragweed plant response rating [5, 14]: 0 | Plant response rating, Ragweed [5, 15]: 50 | Plant response rating, Wheat [6, 12]: 0 | Plant response rating, Wheat [6, 13]: 10 | Plant response rating, Blackgrass [7, 12]: 10 | Plant response rating, Blackgrass [7, 13]: 60 | Plant response rating, Galium [8, 12]: 70 | Plant response rating, Galium [8, 13]: 100 | Barnyardgrass plant response rating [9]: 0 | Ducksalad plant response rating [10]: 0 | Rice plant response rating (rice (Oryza sativa)): 0 | Sedge, Umbrella plant response rating [11]: 0

N#Cc1cccc(Oc2ncc(Cl)cn2)c1-c1ccsc1 [Compound 112]
Plant response rating, Ryegrass, Italian [1, 16]: 0 | Plant response rating, Ryegrass, Italian [1, 17]: 0 | Plant response rating, Ryegrass, Italian [1, 12]: 0 | Plant response rating, Barnyardgrass [2, 16]: 10 | Plant response rating, Barnyardgrass [2, 17]: 10 | Plant response rating, Barnyardgrass [2, 12]: 30 | Plant response rating, Barnyardgrass [2, 18]: 30 | Plant response rating, Corn (corn (Zea mays); [16]): 10 | Plant response rating, Corn (corn (Zea mays); [12]): 20 | Plant response rating, Foxtail, Giant [3, 16]: 10 | Plant response rating, Foxtail, Giant [3, 17]: 10 | Plant response rating, Foxtail, Giant [3, 12]: 60 | Plant response rating, Foxtail, Giant [3, 18]: 70 | Plant response rating, Kochia (kochia (Kochia scoparia); [16]): 60 | Plant response rating, Kochia (kochia (Kochia scoparia); [17]): 0 | Plant response rating, Kochia (kochia (Kochia scoparia); [12]): 70 | Plant response rating, Kochia (kochia (Kochia scoparia); [18]): 50 | Plant response rating, Pigweed [4, 16]: 30 | Plant response rating, Pigweed [4, 17]: 30 | Plant response rating, Pigweed [4, 12]: 30 | Plant response rating, Ragweed [5, 16]: 20 | Plant response rating, Ragweed [5, 17]: 0 | Plant response rating, Ragweed [5, 12]: 30 | Plant response rating, Wheat [6, 16]: 0 | Plant response rating, Wheat [6, 12]: 0 | Plant response rating, Blackgrass [7, 16]: 0 | Plant response rating, Blackgrass [7, 12]: 20 | Plant response rating, Galium [8, 16]: 30 | Plant response rating, Galium [8, 12]: 50 | Barnyardgrass plant response rating [9]: 0 | Ducksalad plant response rating [10]: 30 | Rice plant response rating (rice (Oryza sativa)): 0 | Sedge, Umbrella plant response rating [11]: 95

Clc1cnc(Oc2ccccc2-c2nnc(C3CC3)o2)nc1 [Compound 122]
Plant response rating, Ryegrass, Italian [1, 17]: 0 | Plant response rating, Ryegrass, Italian [1, 12]: 0 | Plant response rating, Barnyardgrass [2, 16]: 0 | Plant response rating, Barnyardgrass [2, 17]: 0 | Plant response rating, Barnyardgrass [2, 12]: 0 | Plant response rating, Barnyardgrass [2, 18]: 0 | Plant response rating, Corn (corn (Zea mays); [16]): 0 | Plant response rating, Corn (corn (Zea mays); [12]): 0 | Plant response rating, Foxtail, Giant [3, 16]: 0 | Plant response rating, Foxtail, Giant [3, 17]: 0 | Plant response rating, Foxtail, Giant [3, 12]: 0 | Plant response rating, Foxtail, Giant [3, 18]: 0 | Plant response rating, Kochia (kochia (Kochia scoparia); [17]): 0 | Plant response rating, Kochia (kochia (Kochia scoparia); [12]): 20 | Plant response rating, Kochia (kochia (Kochia scoparia); [18]): 10 | Plant response rating, Pigweed [4, 17]: 10 | Plant response rating, Pigweed [4, 12]: 20 | Plant response rating, Ragweed [5, 17]: 0 | Plant response rating, Ragweed [5, 12]: 10 | Plant response rating, Wheat [6, 12]: 20 | Plant response rating, Blackgrass [7, 16]: 0 | Plant response rating, Blackgrass [7, 12]: 0 | Plant response rating, Galium [8, 12]: 20 | Barnyardgrass plant response rating [9]: 0 | Ducksalad plant response rating [10]: 0 | Rice plant response rating (rice (Oryza sativa)): 0 | Sedge, Umbrella plant response rating [11]: 0

Cc1cnc(Oc2ccccc2-c2cc(C(C)(F)F)on2)nc1 [Compound 173]
Plant response rating, Ryegrass, Italian [1, 17]: 0 | Plant response rating, Ryegrass, Italian [1, 12]: 20 | Plant response rating, Ryegrass, Italian [1, 19]: 0 | Ryegrass, Italian plant response rating [1, 14]: 20 | Plant response rating, Barnyardgrass [2, 17]: 60 | Plant response rating, Barnyardgrass [2, 12]: 70 | Plant response rating, Barnyardgrass [2, 19]: 30 | Barnyardgrass plant response rating [2, 14]: 90 | Plant response rating, Corn (corn (Zea mays); [12]): 40 | Plant response rating, Corn (corn (Zea mays); [19]): 10 | Plant response rating, Foxtail, Giant [3, 17]: 50 | Plant response rating, Foxtail, Giant [3, 12]: 90 | Plant response rating, Foxtail, Giant [3, 19]: 30 | Foxtail, Giant plant response rating [3, 14]: 100 | Plant response rating, Kochia (kochia (Kochia scoparia); [17]): 70 | Plant response rating, Kochia (kochia (Kochia scoparia); [12]): 100 | Plant response rating, Kochia (kochia (Kochia scoparia); [19]): 70 | Kochia plant response rating (kochia (Kochia scoparia); [14]): 100 | Plant response rating, Pigweed [4, 17]: 80 | Plant response rating, Pigweed [4, 12]: 80 | Plant response rating, Pigweed [4, 19]: 60 | Pigweed plant response rating [4, 14]: 100 | Plant response rating, Ragweed [5, 17]: 10 | Plant response rating, Ragweed [5, 12]: 60 | Plant response rating, Ragweed [5, 19]: 40 | Ragweed plant response rating [5, 14]: 70 | Plant response rating, Wheat [6, 12]: 0 | Plant response rating, Wheat [6, 19]: 0 | Plant response rating, Blackgrass [7, 12]: 70 | Plant response rating, Blackgrass [7, 19]: 30 | Plant response rating, Galium [8, 12]: 90 | Plant response rating, Galium [8, 19]: 50 | Barnyardgrass plant response rating [9]: 0 | Ducksalad plant response rating [10]: 80 | Rice plant response rating (rice (Oryza sativa)): 0 | Sedge, Umbrella plant response rating [11]: 60
